Experiment: Formulation of a buffer system
Format: physicochemical
Settings: 0.025 M phosphate buffer system, pH 8
Protocol: It was also noted that changes in pH occurred during the solubility study. […] A suitable 0.025 M buffer system was developed containing 7.25 mg/ml disodium hydrogen phosphate dodecahydrate and 0.74 mg/ml sodium dihydrogen phosphate dihydrate.

reduction of pH of the buffered solution on addition of CN-Cbl: 0.1 pH unit
Substance: cyanocobalamin [CN-Cbl]

Source: patent US20080039422A1, “Vitamin B12-Containing Compositions and Methods of Use” (Transition Therapeutics Inc., priority 2004, published 2008)
